Target: T1, recombinant human 5-HT5A receptor (Homo sapiens, UniProt P47898)
T1 construct: expressed in transfected cells; host or cells: HEK-EBNA (Human Embryonic Kidney-EBNA) cells, transient cDNA expression, membranes
Assay: [3H]LSD radioligand binding assay, membranes of HEK-EBNA cells transiently expressing 5-HT5A receptors
Conditions: [3H]LSD approx. 1 nM, SPA beads, 120 min at room temperature; Ki from IC50 by Cheng-Prussoff equation
Protocol: A [^3H]LSD radioligand binding assay was used to determine the affinity of the compounds for the recombinant human 5-HT5A receptor, in membranes from transiently (cDNA) expressed 5-HT5A receptors in Human Embryonic Kidney-EBNA (HEK-EBNA) cells. Assay buffer consisted of Tris (50 mM) buffer containing 1 mM EGTA, 10 mM MgCl2 (pH 7.4) and 10 μM pargyline. The binding assay was carried out in 96-well-plates in the presence of [^3H]LSD (approximately 1 nM), approximately 2 μg/well of membrane protein, and 0.5 mg of Ysi-poly-1-lysine SPA beads in a final volume of 200 μl of buffer. Non-specific binding was defined using methiothepin 2 μM. Compounds were tested at 10 concentrations. All assays were conducted in duplicate and repeated at least two times. Assay plates were incubated for 120 min at room temperature before centrifugation. Bound ligand was determined using a Packard Topcount scintillation counter. IC50 values were calculated using a non-linear curve fitting program and Ki values calculated using the Cheng-Prussoff equation.

T1 sequence (P47898 whole entry): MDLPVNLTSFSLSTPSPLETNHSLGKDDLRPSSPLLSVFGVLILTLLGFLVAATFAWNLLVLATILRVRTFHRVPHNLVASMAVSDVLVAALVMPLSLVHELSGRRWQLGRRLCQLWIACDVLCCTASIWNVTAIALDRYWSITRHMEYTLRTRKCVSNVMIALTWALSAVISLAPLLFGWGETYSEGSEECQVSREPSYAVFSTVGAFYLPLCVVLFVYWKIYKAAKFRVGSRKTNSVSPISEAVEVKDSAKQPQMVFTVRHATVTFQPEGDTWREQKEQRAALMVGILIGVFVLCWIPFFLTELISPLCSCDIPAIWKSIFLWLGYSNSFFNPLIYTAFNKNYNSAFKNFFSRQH

Compound | Ki [nM]
Fc1ccc(Oc2cccc3nc(N[C@@H]4CCc5ccccc54)ccc23)cc1 [Example 9, [5-(4-Fluoro-phenoxy)-quinolin-2-yl]-(R)-indan-1-yl-amine] | 90.9
CON=C(c1ccc(C)cc1)c1cccc2nc(N[C@@H]3CCc4ccccc43)ccc12 [Example 98, [2-((R)-Indan-1-ylamino)-(4-methyl-phenyl)-quinolin-5-yl]-methanone O-methyl-oxime] | 49.8
Fc1cc(F)cc(CNc2cccc3nc(NC4COc5ccccc54)ccc23)c1 (racemic) [Example 17, rac-N5-(3,5-Difluoro-benzyl)-N2-(2,3-dihydro-benzofuran-3-yl)-quinoline-2,5-diamine] | 9.24
c1cncc(CNc2cccc3nc(NC4COc5ccccc54)ccc23)c1 (racemic) [Example 18, rac-N2-(2,3-Dihydro-benzofuran-3-yl)-N5-pyridin-3-ylmethyl-quinoline-2,5-diamine] | 22.1
Clc1ccc(Nc2cccc3nc(N[C@@H]4CCc5ccccc54)ccc23)cc1 [Example 7, N5-(4-Chloro-phenyl)-N2-(R)-indan-1-yl-quinoline-2,5-diamine] | 2.84
O=S(=O)(Nc1cccc2nc(N[C@@H]3CCc4ccccc43)ccc12)c1ccc(F)cc1 [Example 1, 4-Fluoro-N-[2-((R)-indan-1-ylamino)-quinolin-5-yl]-benzenesulfonamide] | 3.76
c1ccc2c(c1)CC[C@H]2Nc1ccc2c(NCc3cnc[nH]3)cccc2n1 [Example 43, N5-(3H-Imidazol-4-ylmethyl)-N2-(R)-indan-1-yl-quinoline-2,5-diamine] | 6.45
Cc1nc(CNc2cccc3nc(N[C@@H]4CCc5ccccc54)ccc23)c[nH]1 [Example 53] | 7.57
Cc1cc(Nc2cccc3nc(N[C@@H]4CCc5ccccc54)ccc23)n(C)n1 [Example 76, N5-(2,5-Dimethyl-2H-pyrazol-3-yl)-N2-(R)-indan-1-yl-quinoline-2,5-diamine] | 33
O=S(=O)(Nc1cccc2nc(N[C@@H]3CCc4ccccc43)ccc12)c1cc(F)cc(F)c1 [Example 11, 3,5-Difluoro-N-[2-((R)-indan-1-ylamino)-quinolin-5-yl]-benzenesulfonamide] | 5.86
(4-Chloro-phenyl)-[2-((R)-indan-1-ylamino)-quinolin-5-yl]-methanone [Example 90] | 49.7
c1cncc(COc2cccc3nc(N[C@@H]4CCc5ccccc54)ccc23)c1 [Example 4, (R)-Indan-1-yl-[5-(pyridin-3-ylmethoxy)-quinolin-2-yl]-amine] | 37.3
COc1ccc2c(c1)C(Nc1ccc3c(NS(=O)(=O)c4ccc(F)cc4)cccc3n1)CC2 (single isomer, unassigned; (+)) [Example 33, (+)-4-Fluoro-N-[2-(6-methoxy-indan-1-ylamino)-quinolin-5-yl]-benzenesulfonamide] | 12
COc1ccc2c(c1)C(Nc1ccc3c(NS(=O)(=O)c4cc(F)c(F)c(F)c4)cccc3n1)CC2 (single isomer, unassigned; (+)) [Example 20, (+)-3,4,5-Trifluoro-N-[2-(6-methoxy-indan-1-ylamino)-quinolin-5-yl]-benzenesulfonamide] | 18.1
Cc1ccc(C(=NO)c2cccc3nc(N[C@@H]4CCc5ccccc54)ccc23)cc1 [Example 99, [2-((R)-Indan-1-ylamino)-(4-methyl-phenyl)-quinolin-5-yl]-methanone oxime] | 1.8
O=S(=O)(Nc1cccc2nc(N[C@@H]3CCc4ccccc43)ccc12)c1ccc(Cl)s1 [Example 5, 5-Chloro-thiophene-2-sulfonic acid [2-((R)-indan-1-ylamino)-quinolin-5-yl]-amide] | 3.62
O=S(=O)(Nc1cccc2nc(NC3COc4ccccc43)ccc12)c1cc(F)cc(F)c1 (single isomer, unassigned; (+)) [Example 41, (+)-N-{2-[(2,3-Dihydro-benzofuran-3-yl)amino]-quinolin-5-yl}-3,5-difluoro-benzenesulfonamide] | 22.9

Now from value to compound:

Ki [nM] | Compound
678 | O=C(c1ccc(CN2CCOCC2)cc1)c1cccc2nc(N[C@@H]3CCc4ccccc43)ccc12 [Example 103, [2-((R)-Indan-1-ylamino)-quinolin-5-yl]-(4-morpholin-4-ylmethyl-phenyl)-methanone]
1.55 | ON=C(c1ccccc1)c1cccc2nc(N[C@@H]3CCc4ccccc43)ccc12 [Example 91, [2-((R)-Indan-1-ylamino)-quinolin-5-yl]-phenyl-methanone oxime]
33.4 | O=C(c1cccs1)c1cccc2nc(N[C@@H]3CCc4ccccc43)ccc12 [Example 102, [2-((R)-Indan-1-ylamino)-quinolin-5-yl]-thiophen-2-yl-methanone]
23.2 | ON=C(c1ccc(CN2CCOCC2)cc1)c1cccc2nc(N[C@@H]3CCc4ccccc43)ccc12 [Example 105, [2-((R)-Indan-1-ylamino)-quinolin-5-yl]-(4-morpholin-4-ylmethyl-phenyl)-methanone oxime]
3.64 | ON=C(c1cccs1)c1cccc2nc(N[C@@H]3CCc4ccccc43)ccc12 [Example 104, [2-((R)-Indan-1-ylamino)-quinolin-5-yl]-thiophen-2-yl-methanone oxime]
7.7 | ON=C(c1cc(F)cc(F)c1)c1cccc2nc(N[C@@H]3CCc4ccccc43)ccc12 [Example 101, (3,5-Difluoro-phenyl)-[2-((R)-indan-1-ylamino)-quinolin-5-yl]-methanone oxime]
24.1 | O=C(c1ccccc1)c1cccc2nc(N[C@@H]3CCc4ccccc43)ccc12 [Example 85, [2-((R)-Indan-1-ylamino)-quinolin-5-yl]-phenyl-methanone]
41.7 | c1ccc2c(c1)CC[C@H]2Nc1ccc2c(-c3cccc4[nH]ccc34)cccc2n1 [Example 74, (R)-Indan-1-yl-[5-(1H-indol-4-yl)-quinolin-2-yl]-amine]
2.94 | c1ccc2c(c1)CC[C@H]2Nc1ccc2c(Nc3cccc4[nH]ccc34)cccc2n1 [Example 71, N2-(R)-Indan-1-yl-N5-(1H-indol-4-yl)-quinoline-2,5-diamine]
7.82 | N=C(c1ccc(F)cc1)c1cccc2nc(N[C@@H]3CCc4ccccc43)ccc12 [Example 82, {5-[(4-Fluoro-phenyl)-imino-methyl]-quinolin-2-yl}-(R)-indan-1-yl-amine]
56.2 | Fc1cc(F)cc(CNc2cccc3nc(NC4Cc5ccccc5C4)ccc23)c1 [Example 87, N5-(3,5-Difluoro-benzyl)-N2-indan-2-yl-quinoline-2,5-diamine]
4.7 | c1ccc2c(c1)CC[C@H]2Nc1ccc2c(Nc3ccc4cc[nH]c4c3)cccc2n1 [Example 73, N2-(R)-Indan-1-yl-N5-(1H-indol-6-yl)-quinoline-2,5-diamine]
6 | c1ccc2c(c1)CC[C@H]2Nc1ccc2c(Nc3ccc4[nH]ccc4c3)cccc2n1 [Example 72, N2-(R)-Indan-1-yl-N5-(1H-indol-5-yl)-quinoline-2,5-diamine]
127 | Clc1ccccc1-c1cccc2nc(N[C@@H]3CCc4ccccc43)ccc12 [Example 75, [5-(2-Chloro-phenyl)-quinolin-2-yl]-(R)-indan-1-yl-amine]
91.6 | O=C(Nc1cccc2nc(N[C@@H]3CCc4ccccc43)ccc12)c1ccc(F)cc1 [Example 78, 4-Fluoro-N-[2-((R)-indan-1-ylamino)-quinolin-5-yl]-benzamide]
22.5 | c1ccc2c(c1)CC[C@H]2Nc1ccc2c(NCc3ncc[nH]3)cccc2n1 [Example 49, N5-(1H-Imidazol-2-ylmethyl)-N2-(R)-indan-1-yl-quinoline-2,5-diamine]
6.03 | CN(C)CCOc1ccccc1CNc1cccc2nc(N[C@@H]3CCc4ccccc43)ccc12 [Example 64, N5-[2-(2-Dimethylamino-ethoxy)-benzyl]-N2-(R)-indan-1-yl-quinoline-2,5-diamine]
13.4 | COc1cccc2c1C(Nc1ccc3c(NS(=O)(=O)c4cc(F)cc(F)c4)cccc3n1)CCC2 (racemic) [Example 59, rac 3,5-Difluoro-N-[2-(8-methoxy-1,2,3,4-tetrahydro-naphthalen-1-ylamino)-quinolin-5-yl]-benzenesulfonamide]
44.3 | c1ccc2c(c1)CC(Nc1ccc3c(NCc4cccc5[nH]ccc45)cccc3n1)C2 [Example 88, N2-Indan-2-yl-N5-(1H-indol-4-ylmethyl)-quinoline-2,5-diamine]
1.65 | c1ccc2c(c1)CC[C@H]2Nc1ccc2c(NCc3cccc4[nH]ccc34)cccc2n1 [Example 56, N2-(R)-Indan-1-yl-N5-(1H-indol-4-ylmethyl)-quinoline-2,5-diamine]
97.7 | O=C(Nc1cccc2nc(N[C@@H]3CCc4ccccc43)ccc12)c1cc(F)cc(F)c1 [Example 45, 3,5-Difluoro-N-[2-((R)-indan-1-ylamino)-quinolin-5-yl]-benzamide]
25.6 | Cn1cc(CNc2cccc3nc(N[C@@H]4CCc5ccccc54)ccc23)cn1 [Example 55, N2-(R)-Indan-1-yl-N5-(1-methyl-1H-pyrazol-4-ylmethyl)-quinoline-2,5-diamine]

System: not given
Assay: not given
Conditions: not given

melting point [°C] | Compound
160 | O=C(c1ccc(CN2CCOCC2)cc1)c1cccc2nc(N[C@@H]3CCc4ccccc43)ccc12 [Example 103, [2-((R)-Indan-1-ylamino)-quinolin-5-yl]-(4-morpholin-4-ylmethyl-phenyl)-methanone]
175.5 | ON=C(c1ccccc1)c1cccc2nc(N[C@@H]3CCc4ccccc43)ccc12 [Example 91, [2-((R)-Indan-1-ylamino)-quinolin-5-yl]-phenyl-methanone oxime]
176 | O=C(c1cccs1)c1cccc2nc(N[C@@H]3CCc4ccccc43)ccc12 [Example 102, [2-((R)-Indan-1-ylamino)-quinolin-5-yl]-thiophen-2-yl-methanone]
167 | ON=C(c1ccc(CN2CCOCC2)cc1)c1cccc2nc(N[C@@H]3CCc4ccccc43)ccc12 [Example 105, [2-((R)-Indan-1-ylamino)-quinolin-5-yl]-(4-morpholin-4-ylmethyl-phenyl)-methanone oxime]
194 | ON=C(c1cccs1)c1cccc2nc(N[C@@H]3CCc4ccccc43)ccc12 [Example 104, [2-((R)-Indan-1-ylamino)-quinolin-5-yl]-thiophen-2-yl-methanone oxime]
120.5 | ON=C(c1cc(F)cc(F)c1)c1cccc2nc(N[C@@H]3CCc4ccccc43)ccc12 [Example 101, (3,5-Difluoro-phenyl)-[2-((R)-indan-1-ylamino)-quinolin-5-yl]-methanone oxime]

From US7923561B2 (Hoffmann-La Roche Inc., priority 2006, dated 2011)
